Experiments:
[1] = tested on: IL-4; test: Experimental Example 1: IL-4 content of plasma after intraperitoneal injection in C57BL/6 mouse (Cytometric bead array); type: in vivo; settings: intraperitoneal 100, 10 or 1 μg/kg body weight, plasma 3, 6 and 12 hr after administration, FIG. 2
Experimental: (§1) Compound 11′ was dissolved in […] saline (manufactured by OTSUKA PHARMACEUTICAL CO., LTD) containing Tween 20 (Bio-Rad) and prepared to a dose of 100 μg/kg body weight, 10 μg/kg body weight or 1 μg/kg body weight C57BL/6 mouse (5 per group), and the compound 11′ solution (200 μL) was intraperitoneally injected.
(§2) α-GalCer was used as a control substance, and 200 μL of each α-GalCer solution prepared to a dose of 100 μg/kg body weight, 10 μg/kg body weight or 1 μg/kg body weight according to a similar method was intraperitoneally injected.
(§3) A group administered with a medium (200 μL of saline containing 0.5% Tween 20) was taken as a negative control. The blood (80 μL) was taken from the orbital plexus venosus immediately before administration and 3, 6, 12, 24, 36 and 48 hr after administration, and the plasma was prepared. The IL-4 content of plasma immediately before administration and 3, 6 and 12 hr after administration, as well as IFN-γ content of plasma immediately before administration and 6, 12, 24, 36 and 48 hr after administration were measured by Cytometric bead array system (BD Biosciences), which is one kind of the ELISA method. The measurement results of IFN-γ production amount are shown FIG. 1 and the measurement results of IL-4 production amount are shown in FIG. 2.

[2] = tested on: IL-4; test: Experimental Example 3: dendritic cells plus human peripheral blood mononuclear cells, IL-4 in culture supernatant; type: cell-based; settings: culture supernatants; as compared to α-GalCer and α-C-GalCer; FIG. 4
Experimental: (§4) The following experiment was performed for human NKT cell proliferation and IFN-γ production induction.
(§5) Monocytes were prepared from the peripheral blood of a healthy subject by anti-CD14 microbeads (Miltenyi Biotech), and dendritic cells were induced using GM-CSF and IL-4 (Peprotech). To the dendritic cells was added α-GalCer or synthetic glycolipid (α-C-GalCer, compound 11′, compound 51′), human peripheral blood mononuclear cell was added and the cells were cultured.

[3] = tested on: IFN-γ; test: Experimental Example 3: human NKT cell proliferation and IFN-γ production induction, dendritic cells plus peripheral blood mononuclear cells, IFN-γ in culture supernatant; type: cell-based; settings: as compared to α-GalCer and α-C-GalCer; for IFN-γ concentration of the culture supernatants: 3 days and 8 days later, FIG. 4 (a), (b); for selectivity of IFN-γ production induction: IFN-γ versus IL-4, FIG. 4 (a)-(d)
Experimental: as §4, §5
In this experiment, the IFN-γ concentration of the culture supernatants 3 days and 8 days later was measured. As a result, the concentration was very high when stimulated with compound 11′ and compound 51′ as compared to α-GalCer and α-C-GalCer (FIG. 4 (a), (b)).

[4] = tested on: IFN-γ; test: Experimental Example 1: IFN-γ content of plasma after intraperitoneal injection in C57BL/6 mouse (Cytometric bead array); type: in vivo; settings: intraperitoneal 100, 10 or 1 μg/kg body weight, plasma 6, 12, 24, 36 and 48 hr after administration, FIG. 1
Experimental: as §1, §2, §3

[5] = tested on: B16 melanoma; test: Experimental Example 2: anti-liver metastasis effect, survival after intrasplenic transfer of B16 melanoma; type: in vivo, mouse; settings: FIG. 3
Experimental: The following experiment was performed for the anti-liver metastasis effect.
The left side of mouse was opened under anesthesia, and the spleen was exposed. 1×10^6 B16 melanoma was intrasplenically transferred using a 1 mL syringe (TERUMO CORPORATION), maintained for 30 sec, and the blood vessel was sutured. The spleen was isolated and the peritoneal membrane was sutured with a surgical thread (No. 4, Alfresa Pharma Corporation), and the outer skin was joined with a surgical clip. After 3 hr from the cell transfer, α-GalCer and compound 11′ were administered each in an amount of 2, 0.2 or 0.02 μg per mouse from the tail vein and the survival rate of each group was examined.

Row | Compound | IL-4 production amount [1] | IL-4 concentration [2] | IFN-γ concentration of the culture supernatants [3] | selectivity of IFN-γ production induction [3] | IFN-γ production amount [4] | survival period ([5]; 2, 0.2 or 0.02 μg per mouse from the tail vein 3 hr after cell transfer, as compared to the non-treatment group and the α-GalCer administration group) | survival period ([5]; administration of 0.2 and 0.02 μg per mouse, as compared to the α-GalCer administration group)
1 | CCCCCCCCCCCCCCCCCCCCCCCCCC(=O)N[C@@H](CO[C@H]1CC(CO)[C@H](O)C(O)C1O)[C@H](O)[C@H](O)CCCCCCCCCCCCCC (stereo partly drawn) [compound 11′, (2S,3S,4R)-1-(5a-carba-α-D-galactopyranosyloxy)-2-(hexacosanoylamino)-3,4-octadecanediol] | in a small amount | almost the same | very high | selectively induced IFN-γ production | preferentially produced IFN-γ | extended | remarkable elongated
2 | CCCCCCCCCCCCCCCCCCCCCCCCCC(=O)N[C@@H](CO[C@H]1C[C@H](C)[C@H](O)[C@H](O)[C@H]1O)[C@H](O)[C@H](O)CCCCCCCCCCCCCC [compound 51′, (2S,3S,4R)-1-(5a-carba-α-D-fucopyranosyloxy)-2-(hexacosanoylamino)-3,4-octadecanediol] |  | almost the same | very high | selectively induced IFN-γ production |  |  | 
3 | CCCCCCCCCCCCCCCCCCCCCCCCCC(=O)N[C@@H](COC1OC(CO)C(O)C(O)C1O)[C@H](O)[C@H](O)CCCCCCCCCCCCCC (stereo partly drawn) [α-GalCer, α-galactosylceramide, reference compound] | in large amounts |  |  |  | in large amounts |  | 

Source: US8299223B2, “Pseudoglycolipid and use thereof” (Riken, priority 2007, dated 2012)
